# Active and inactive are the calls of the source. The calls are words filed in the database; no cut-off is given here.
# Tests used:
# Mus musculus [1] = experiment: Inhibition of MEK-mediated ERK phosphorylation in tumor of human HT-29 cells expressing B-Raf V600E mutant xenografted nude mouse at 100 mg/kg, po after 12 hrs by Western blot analysis relative to control; assay type: functional; details: HT-29, 12 h
# [2] = Cmax in human H460 cells expressing K-Ras Q61H mutant xenografted nude mouse at 25 mg/kg, po bid; assay type: ADME, organism-based; set-up: dose 25 mg/kg, route oral; details: in vivo
# NCI-H460 [3] = experiment: Antitumor activity against human H460 cells expressing K-Ras Q61H mutant xenografted in nude mouse assessed as tumor growth inhibition at 25 mg/kg, po bid; assay type: functional; details: read-out: GI
# [4] = Growth inhibition of human LOX cells expressing B-Raf V600E mutant by MTT assay; assay type: functional, cell-based
# [5] = Drug level in human LOX cells expressing B-Raf V600E mutant xenografted nude mouse tumor at 100 mg/kg, po after 4 hrs; assay type: ADME, organism-based, Neoplasm; set-up: dose 100 mg/kg, route oral; details: read-out: Drug uptake
# [6] = Cmax in human H460 cells expressing K-Ras Q61H mutant xenografted nude mouse at 200 mg/kg, po qd; assay type: ADME, organism-based; set-up: dose 200 mg/kg, route oral; details: in vivo
# [7] = Cmax in human H460 cells expressing K-Ras Q61H mutant xenografted nude mouse at 50 mg/kg, po bid; assay type: ADME, organism-based; set-up: dose 50 mg/kg, route oral; details: in vivo
# [8] = Cmax in human LOX cells expressing B-Raf V600E mutant xenografted nude mouse at 12.5 mg/kg, po bid; assay type: ADME, organism-based; set-up: dose 12.5 mg/kg, route oral; details: in vivo
# [9] = Cmax in human HT-29 cells expressing B-Raf V600E mutant xenografted nude mouse at 50 mg/kg, po bid; assay type: ADME, organism-based; set-up: dose 50 mg/kg, route oral; details: in vivo
# [10] = molecular target: T1, Dual specificity mitogen-activated protein kinase kinase; MEK1/2 (Homo sapiens) (UniProt P36507+Q02750); details: LOX, 2 to 10 uM
# Description: Inhibition of MEK1/2 in human LOX cells assessed as down regulation of CDK4/cyclin D1 expression at 2 to 10 uM by Western blot analysis
# [11] = Cmax in human HT-29 cells expressing B-Raf V600E mutant xenografted nude mouse at 100 mg/kg, po bid; assay type: ADME, organism-based; set-up: dose 100 mg/kg, route oral; details: in vivo
# [12] = AUC (0 to 12 hrs) in human LOX cells expressing B-Raf V600E mutant xenografted nude mouse at 6.25 mg/kg, po bid; assay type: ADME, organism-based; set-up: time < 12 hr, dose 6.25 mg/kg, route oral; details: in vivo
# Mus musculus [13] = experiment: Average drug concentration in human MIAPaCa2 cells expressing K-Ras G12C mutant xenografted nude mouse plasma at 200 mg/kg, po qd; assay type: ADME, organism-based, MIA PaCa-2; set-up: dose 200 mg/kg, route oral; details: in vivo
# [14] = Antitumor activity against human LOX cells expressing B-Raf V600E mutant xenografted in nude mouse assessed as tumor growth inhibition at 100 mg/kg, po bid; assay type: functional; details: read-out: GI
# Mus musculus [15] = experiment: Inhibition of MEK-mediated ERK phosphorylation in tumor of human HT-29 cells expressing B-Raf V600E mutant xenografted nude mouse at 50 mg/kg, po after 8 hrs by Western blot analysis relative to control; assay type: functional; details: HT-29, 8 h
# Mus musculus [16] = experiment: Toxicity in human H460 cells expressing K-Ras Q61H mutant xenografted nude mouse assessed as gross signs of adverse effect at 500 mg/kg, po administered weekly once for 3 weeks; assay type: organism-based; set-up: dose 500 mg/kg, route oral; details: in vivo, 504 h
# [17] = Drug level in human HT-29 cells expressing B-Raf V600E mutant xenografted nude mouse tumor at 50 mg/kg, po after 4 hrs; assay type: ADME, organism-based, Neoplasm; set-up: dose 50 mg/kg, route oral; details: read-out: Drug uptake
# Mus musculus [18] = experiment: Toxicity in human LOX cells expressing B-Raf V600E mutant xenografted nude mouse assessed as gross signs of adverse effect at 500 mg/kg, po administered weekly once for 3 weeks; assay type: organism-based; set-up: dose 500 mg/kg, route oral; details: in vivo, 504 h
# [19] = molecular target: Dual specificity mitogen-activated protein kinase kinase 1 (Homo sapiens, UniProt Q02750); experiment: Inhibition of MEK1 in human HT-29 cells assessed as inhibition of ERK phosphorylation by Western blot analysis; assay type: cell-based
# Mus musculus [20] = experiment: Inhibition of MEK-mediated ERK phosphorylation in tumor of human LOX cells expressing B-Raf V600E mutant xenografted nude mouse at 100 mg/kg, po after 1 hr by Western blot analysis relative to control; assay type: functional
# NCI-H460 [21] = experiment: Antitumor activity against human H460 cells expressing K-Ras Q61H mutant xenografted in nude mouse assessed as tumor growth inhibition at 100 mg/kg, po bid; assay type: functional; details: read-out: GI
# [22] = Plasma concentration in human LOX cells expressing B-Raf V600E mutant xenografted nude mouse at 100 mg/kg, po after 2 hrs; assay type: ADME, organism-based; set-up: dose 100 mg/kg, route oral
# [23] = Drug level in human LOX cells expressing B-Raf V600E mutant xenografted nude mouse tumor at 100 mg/kg, po after 12 hrs; assay type: ADME, organism-based, Neoplasm; set-up: dose 100 mg/kg, route oral; details: read-out: Drug uptake
# [24] = AUC (0 to 12 hrs) in human HT-29 cells expressing B-Raf V600E mutant xenografted nude mouse at 100 mg/kg, po bid; assay type: ADME, organism-based; set-up: time < 12 hr, dose 100 mg/kg, route oral; details: in vivo
# [25] = molecular target: T1, Dual specificity mitogen-activated protein kinase kinase; MEK1/2 (Homo sapiens); details: HT-29, 2 to 10 uM
# Description: Inhibition of MEK1/2 phosphorylation in human HT-29 cells at 2 to 10 uM by Western blot analysis
# [26] = Cmax in human HT-29 cells expressing B-Raf V600E mutant xenografted nude mouse at 25 mg/kg, po bid; assay type: ADME, organism-based; set-up: dose 25 mg/kg, route oral; details: in vivo
# [27] = Cmax in human LOX cells expressing B-Raf V600E mutant xenografted nude mouse at 25 mg/kg, po bid; assay type: ADME, organism-based; set-up: dose 25 mg/kg, route oral; details: in vivo
# Mus musculus [28] = experiment: Inhibition of MEK-mediated ERK phosphorylation in tumor of human LOX cells expressing B-Raf V600E mutant xenografted nude mouse at 100 mg/kg, po after 12 hrs by Western blot analysis relative to control; assay type: functional
# [29] = molecular target: T1, Dual specificity mitogen-activated protein kinase kinase; MEK1/2 (Homo sapiens); details: HT-29, 2 to 10 uM; remark: listed apart in the source
# Description: Inhibition of MEK1/2 in human HT-29 cells assessed as upregulation of p27 expression at 2 to 10 uM by Western blot analysis
# LOX = experiment: Induction of apoptosis in human LOX cells; assay type: functional, cell-based
# Mus musculus [30] = experiment: Average drug concentration in human LOX cells expressing B-Raf V600E mutant xenografted nude mouse plasma at 6.25 mg/kg, po bid; assay type: ADME, organism-based; set-up: dose 6.25 mg/kg, route oral; details: in vivo
# [31] = Antitumor activity against human LOX cells expressing B-Raf V600E mutant xenografted in nude mouse assessed as tumor growth inhibition at 200 mg/kg, po bid; assay type: functional; details: read-out: GI
# Mus musculus [32] = experiment: Inhibition of MEK-mediated ERK phosphorylation in tumor of human LOX cells expressing B-Raf V600E mutant xenografted nude mouse at 100 mg/kg, po after 8 hrs by Western blot analysis relative to control; assay type: functional
# HT-29 [33] = experiment: Cell cycle arrest in human HT-29 cells assessed as accumulation at G1 phase; assay type: functional, cell-based
# HT-29 [34] = experiment: Antitumor activity against human HT-29 cells expressing B-Raf V600E mutant xenografted in nude mouse assessed as tumor growth inhibition at 50 mg/kg, po bid; assay type: functional; details: read-out: GI
# [35] = molecular target: T1, Dual specificity mitogen-activated protein kinase kinase; MEK1/2 (Homo sapiens); details: LOX, 2 to 10 uM; remark: listed apart in the source
# Description: Inhibition of MEK1/2 in human LOX cells assessed as inhibition of ERK1/2 phosphorylation at 2 to 10 uM by Western blot analysis
# Cynomolgus monkey = experiment: Inhibition of MEK in po dosed cynomolgus monkey peripheral blood mononuclear cells assessed as inhibition of PMA-stimulated ERK phosphorylation after 1 to 24 hrs by flow cytometry; assay type: functional, organism-based; details: Macaca fascicularis
# Mus musculus [36] = experiment: Inhibition of MEK-mediated ERK phosphorylation in po dosed human HT-29 cells expressing B-Raf V600E mutant xenografted nude mouse plasma by Western blot analysis; assay type: functional, organism-based; details: HT-29, Plasma
# [37] = Plasma concentration in human LOX cells expressing B-Raf V600E mutant xenografted nude mouse at 100 mg/kg, po after 4 hrs; assay type: ADME, organism-based; set-up: dose 100 mg/kg, route oral
# T1 sequence (P36507 whole entry, looked up): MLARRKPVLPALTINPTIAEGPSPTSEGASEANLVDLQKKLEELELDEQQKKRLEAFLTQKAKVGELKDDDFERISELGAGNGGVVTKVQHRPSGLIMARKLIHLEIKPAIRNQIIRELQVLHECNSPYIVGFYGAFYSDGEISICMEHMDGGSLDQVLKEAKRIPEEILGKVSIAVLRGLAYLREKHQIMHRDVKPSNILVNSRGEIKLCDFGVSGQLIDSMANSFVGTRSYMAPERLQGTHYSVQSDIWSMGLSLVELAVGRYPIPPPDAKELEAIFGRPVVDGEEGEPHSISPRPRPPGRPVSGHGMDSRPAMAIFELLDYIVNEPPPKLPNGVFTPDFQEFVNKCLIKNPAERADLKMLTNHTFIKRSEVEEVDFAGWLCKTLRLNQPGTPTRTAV
# T1 sequence (Q02750 whole entry, looked up): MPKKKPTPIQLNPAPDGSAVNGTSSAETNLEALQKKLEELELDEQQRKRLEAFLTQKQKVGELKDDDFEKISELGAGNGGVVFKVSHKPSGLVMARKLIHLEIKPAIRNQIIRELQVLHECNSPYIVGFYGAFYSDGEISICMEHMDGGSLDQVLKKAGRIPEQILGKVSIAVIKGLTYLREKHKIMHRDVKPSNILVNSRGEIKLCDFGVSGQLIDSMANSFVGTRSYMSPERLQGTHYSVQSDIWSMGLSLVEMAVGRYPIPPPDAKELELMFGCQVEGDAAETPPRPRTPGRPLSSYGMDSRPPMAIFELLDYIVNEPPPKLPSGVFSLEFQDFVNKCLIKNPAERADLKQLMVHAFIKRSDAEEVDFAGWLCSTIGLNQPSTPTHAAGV
# Dual specificity mitogen-activated protein kinase kinase 1, sequence (Q02750 whole entry): as the sequence (Q02750 whole entry, looked up) above
smiles,measurement,setting,value
C[C@@H](c1ccccc1)[C@@H](C(=O)Nc1ccc(I)cc1F)N1C(=O)N[C@H](c2ccc(OC[C@H](O)CO)cc2)C1=O,inhibition in vivo at 100 mg/kg,Mus musculus [1],0%
same,Cmax,[2],2750 ng/mL
same,inhibition in vivo at 25 mg/kg,NCI-H460 [3],64%
same,IC50,[4],18 nM
same,IC90,[4],720 nM
same,concentration at 4 h,[5],2630 ng/g
same,Cmax,[6],20700 ng/mL
same,Cmax,[7],8080 ng/mL
same,Cmax,[8],1170 ng/mL
same,Cmax,[9],1300 ng/mL
same,inhibition,[10],Active
same,Cmax,[11],4070 ng/mL
same,AUC at 12 h,[12],3970 ng·h/mL
same,Cave,Mus musculus [13],2758 ng/mL
same,inhibition in vivo at 100 mg/kg,[14],> 100%
same,inhibition in vivo at 50 mg/kg,Mus musculus [15],12%
same,Activity,Mus musculus [16],Non-toxic
same,concentration at 4 h,[17],1490 ng/g
same,Activity,Mus musculus [18],Non-toxic
same,IC50,[19],12 nM
same,inhibition in vivo at 100 mg/kg,Mus musculus [20],77%
same,inhibition in vivo at 100 mg/kg,NCI-H460 [21],90%
same,concentration at 2 h,[22],6300 ng/mL
same,concentration at 12 h,[23],318 ng/g
same,AUC at 12 h,[24],18400 ng·h/mL
same,inhibition,[25],Active
same,Cmax,[26],911 ng/mL
same,Cmax,[27],3790 ng/mL
same,inhibition in vivo at 100 mg/kg,Mus musculus [28],12%
same,inhibition,[29],Active
same,Activity,LOX,Active
same,Cave,Mus musculus [30],331 ng/mL
same,inhibition in vivo at 200 mg/kg,[31],> 100%
same,inhibition in vivo at 100 mg/kg,Mus musculus [32],48%
same,Activity,HT-29 [33],Active
same,inhibition in vivo at 50 mg/kg,HT-29 [34],75%
same,inhibition,[35],Active
same,EC50,Cynomolgus monkey,1410 nM
same,EC50,Mus musculus [36],3.35 µM
same,concentration at 4 h,[37],4140 ng/mL

# — ChEMBL document CHEMBL1955803, “Preclinical in vivo evaluation of efficacy, pharmacokinetics, and pharmacodynamics of a novel MEK1/2 kinase inhibitor RO5068760 in multiple tumor models” (Mol Cancer Ther, 2010)
